Assay results reported in ChEMBL document CHEMBL1149889, “ent-Kaurane Diterpenoids from Isodon nervosus” (J Nat Prod, 2008).

Assays:
Format in all cases: functional, cell-based
HepG2 = experiment: Cytotoxicity against human HepG2 cells
K562 = experiment: Cytotoxicity against human K562 cells
A549 = experiment: Cytotoxicity against human A549 cells

| SMILES | IC50 (HepG2) | IC50 (K562) | IC50 (A549) |
| --- | --- | --- | --- |
| C=C1[C@@H]2C[C@H](OC(C)=O)[C@H]3[C@]4(C)[C@@H](OC(C)=O)C[C@H](O)C(C)(C)[C@H]4C(=O)[C@H](O)[C@]3(C2)[C@@H]1OC(C)=O [ADENANTHIN K] | > 100 µM | > 100 µM | > 100 µM |
| C=C1C(=O)[C@]23C[C@H]1C[C@H](OC(C)=O)[C@H]2[C@]1(C)[C@@H](OC(C)=O)C[C@H](O)C(C)(C)[C@H]1[C@@H](O)[C@@H]3OC(C)=O [WEISIENSIN A] | 1.43 µM | 4.11 µM | 1.88 µM |
| C=C1C(=O)[C@]23C[C@H]1C[C@H](OC(C)=O)[C@H]2[C@]1(C)[C@@H](OC(C)=O)C[C@H](O)C(C)(C)[C@H]1C(=O)[C@@H]3OC(C)=O [ADENANTHIN] | 0.32 µM | 1.05 µM | 8.07 µM |
| C=C1[C@@H]2C[C@H](OC(C)=O)[C@H]3[C@]4(C)[C@@H](OC(C)=O)C[C@H](O)C(C)(C)[C@H]4C(=O)[C@H](O)[C@]3(C2)[C@@H]1O [NERVONIN E] | > 100 µM | > 100 µM | > 100 µM |
| C=C1C(=O)[C@]23C[C@H]1C[C@H](OC(C)=O)[C@H]2[C@@]1(C)[C@H]([C@@H](OC(C)=O)[C@@H]3OC(C)=O)C(C)(C)[C@@H](O)C[C@@H]1O [NERVONIN B] | 1.16 µM | 1.18 µM | 1.53 µM |
| C=C1C(=O)[C@]23C[C@H]1C[C@H](OC(C)=O)[C@H]2[C@@]1(C)[C@H](C(=O)[C@@H]3OC(C)=O)C(C)(C)[C@@H](O)C[C@@H]1O [CALCICOLIN B] | 0.52 µM | 1.55 µM | 8.5 µM |
| C=C1[C@@H]2C[C@H](OC(C)=O)[C@H]3[C@]4(C)[C@@H](OC(C)=O)C[C@H](O)C(C)(C)[C@H]4C(=O)[C@H](OC(C)=O)[C@]3(C2)[C@@H]1O [ADENANTHIN J] | > 100 µM | > 100 µM | > 100 µM |
| C=C1[C@@H]2C[C@H](OC(C)=O)[C@H]3[C@]4(C)[C@@H](OC(C)=O)C[C@H](O)C(C)(C)[C@H]4[C@H](O)[C@H](OC(C)=O)[C@]3(C2)[C@@H]1O [FORRESTIN C] | > 100 µM | > 100 µM | > 100 µM |
| C=C1[C@@H]2C[C@H](O)[C@H]3[C@@]4(C)[C@H](C[C@H](OC(C)=O)[C@]3(C2)[C@@H]1O)C(C)(C)[C@@H](OC(C)=O)C[C@@H]4O [ADENANTHIN E] | > 100 µM | > 100 µM | > 100 µM |
| C=C1C(=O)[C@]23C[C@H]1C[C@H](OC(C)=O)[C@H]2[C@]1(C)[C@@H](OC(C)=O)C[C@H](O)C(C)(C)[C@H]1[C@@H](OC(C)=O)[C@@H]3OC(C)=O [CALCICOLIN A] | 0.51 µM | 2.39 µM | 12.2 µM |
| C=C1[C@@H]2C[C@H](O)[C@H]3[C@]4(C)[C@@H](OC(C)=O)C[C@H](O)C(C)(C)[C@H]4[C@@H](OC(C)=O)[C@H](OC(C)=O)[C@]3(C2)[C@@H]1O [NERVONIN G] | > 100 µM | > 100 µM | > 100 µM |
| C=C1[C@@H]2C[C@H](OC(C)=O)[C@H]3[C@@]4(C)[C@H](C(=O)[C@H](OC(C)=O)[C@]3(C2)[C@@H]1OC(C)=O)C(C)(C)[C@@H](O)C[C@@H]4O [NERVONIN C] | > 100 µM | > 100 µM | > 100 µM |
| C=C1[C@@H]2C[C@H](OC(C)=O)[C@H]3[C@]4(C)[C@@H](OC(C)=O)C[C@H](O)C(C)(C)[C@H]4C(=O)[C@H](OC(C)=O)[C@]3(C2)[C@@H]1OC(C)=O [NERVOSANIN] | > 100 µM | > 100 µM | > 100 µM |
| C=C1[C@@H]2C[C@H](O)[C@H]3[C@]4(C)[C@@H](OC(C)=O)C[C@H](O)C(C)(C)[C@H]4[C@@H](O)[C@H](OC(C)=O)[C@]3(C2)[C@@H]1O [NERVONIN F] | > 100 µM | > 100 µM | > 100 µM |
| C=C1[C@@H]2C[C@H](OC(C)=O)[C@H]3[C@@]4(C)[C@H]([C@@H](O)[C@H](OC(C)=O)[C@]3(C2)[C@@H]1O)C(C)(C)[C@@H](O)C[C@@H]4O [NERVONIN I] | > 100 µM | > 100 µM | > 100 µM |
| C=C1[C@@H]2C[C@H](OC(C)=O)[C@H]3[C@]4(C)[C@@H](OC(C)=O)C[C@H](O)[C@]5(C)C[C@@](O)([C@H]54)[C@H](OC(C)=O)[C@]3(C2)[C@@H]1OC(C)=O [NERVONIN A] | > 100 µM | > 100 µM | > 100 µM |
| C=C1[C@@H]2C[C@H](OC(C)=O)[C@H]3[C@@]4(C)[C@H](C[C@H](OC(C)=O)[C@]3(C2)[C@@H]1O)C(C)(C)[C@@H](O)C[C@@H]4O [NERVONIN H] | > 100 µM | > 100 µM | > 100 µM |
| C=C1[C@@H]2C[C@H](O)[C@@H]3[C@@](CC(=O)[C@@H]4C(C)(C)[C@@H](O)C[C@H](O)[C@]43C)(C2)[C@@H]1OC(C)=O [NERVONIN J] | > 100 µM | > 100 µM | > 100 µM |
| C=C1[C@@H]2C[C@H](OC(C)=O)[C@H]3[C@]4(C)[C@@H](OC(C)=O)C[C@H](O)C(C)(C)[C@H]4[C@@H](O)[C@H](OC(C)=O)[C@]3(C2)[C@@H]1OC(C)=O [NERVONIN D] | > 100 µM | > 100 µM | > 100 µM |
| C=C1[C@@H]2C[C@H](O)[C@H]3[C@@]4(C)[C@H]([C@@H](O)[C@H](OC(C)=O)[C@]3(C2)[C@@H]1O)C(C)(C)[C@@H](OC(C)=O)C[C@@H]4O [FORRESTIN B] | > 100 µM | > 100 µM | > 100 µM |
